Data on ten molecules can be found in patent US7422854B1, “Cholesterol reduction signature” (priority 2002, dated 2008).

One assay relates to male Sprague-Dawley rats. Description: Cholesterol Lowering Index: total blood cholesterol (clinical chemistry) in treated versus vehicle-treated rats. Format: in vivo, rat. The conditions noted are these: for Chol index (fold reduction) / Cholesterol Index (fold reduction): male rats; for Chol index (fold reduction): vs vehicle; for reduction in cholesterol: extremes of the twenty treatments of table 1, treated versus untreated rats; for Cholesterol Index (fold reduction): Table 4. From the text: Compound dosing was based on the acute dose LD50s recorded in published reference or literature sources. […] The MTD (maximum tolerated dose) was then selected as the dose at which the animals […] 5-10% body weight during the 5-day range finding study. […] In addition, the clinical observations must show no or mild clinical signs during the whole of the range-finding study. At the next highest dose, signs and symptoms of adverse effects and exceeding those of the MTD should be seen to occur. Should these criteria not be met, the range-finding study is repeated using a modified dose range.
(§1) After determination of the MTD and FED for a compound, each compound was dissolved in a vehicle for administration on day 1 of the study (additional daily doses were stored as frozen aliquots from this initial formulation). Each compound was administered to three individual male Sprague-Dawley rats for each of the two doses (MTD and FED) for one of four different times (0.25 day, 1 day, 3 days, and 5 days), yielding a total of up to 24 animals per compound study. Vehicle choice was based on solubility of the compound, effect of food on adsorption, and the vehicles used in the literature reports examined during the FED selection investigations, described above. Generally, the route and vehicle in which the FED was defined are used. When there was a choice of routes and vehicles, oral routes were chosen over injection routes. Many compounds, especially oncolytics, are only administerable intravenously. In such cases, the compound was administered as an intravenous formulation into the tail vein. Orally administered compounds were given dissolved in either water, 1% carboxymethycellulose (CMC) or corn oil. Intravenously and intraperitoneally administered compounds were given in 0.9% saline. Subcutaneously administered compounds were given in corn oil. Animal body weights were determined at 1 day and, where appropriate, at 4 days, before necropsy, and clinical observations were made on a daily basis. Control animals were dosed with vehicle only. Three male animals were used for each dose and time combination used for the compound treatment.
(§2) Tissue harvest and handling: After the allocated treatment time, the tissues from the animals were harvested. […] All the tissues collected were divided to provide samples for histopathological analyses, and the remainder of each tissue was then snap-frozen. […] The following blood constituents were measured: Blood Urea Nitrogen (BUN), Creatinine (CRE), Glucose (GLU), Alanine Transaminase (ALT), Aspartate Aminotrans-ferase (AST), Alkaline Phosphatase (ALP), Total Bilirubin (TBI), Sodium (SOD), Potassium (POT), Chloride (CHL), Phosphorus (PHO), Total Protein (TPR), Albumin (ALB), Cholesterol (CHO), Creatine Phosphokinase (CPK), Lactate Dehydrogenase (LDH), Carbon Dioxide (CO2), Uric Acid (UA), and Lipase. […] The parameters were measured using a Baker 9000 blood cell analysis instrument according to the manufactures instructions. The following blood constituents were measured: Leukocyte count (WBC), Differential Leukocyte counts, Erythrocyte count (RBC), Hemoglobin concentration (HGB), Hematocrit (HCT), Mean Corpuscular Volume (MCV), Mean Corpuscular Hemoglobin (MCH), Mean Corpuscular Hemoglobin Concentration (MCC), Thrombocyte Count (PLC). Histopathology: Histopathological analyses of hematoxylin and eosin-stained tissue sections were performed and peer-reviewed by board-certified (Diplomate, American College of Veterinary Pathologists) veterinary pathologists. Preparation of Enriched mRNA: Punch Biopsies were Taken from the Frozen Tissues and were completely homogenized before being processed using the MagNA Pure robot. (Roche Diagnostics Corp., Indianapolis, Ind.) in combination with the MagNA Pure LC RNA Isolation kit II (Roche Diagnostics Corp).

The test system of the next assay is livers of rats. Description: Signature Projection Score (SPS): match of liver gene expression to the Cholesterol Reduction Signature. Format: in vivo. The settings on record: rat liver, maximum of training treatments = 100. The method, then: as §1
as §2, with “Corp). The amount of lysis buffer was adjusted to allow 1 ml per 50 mg for liver tissue, or 1 ml per 80 mg for all other tissues. After complete homogenization and before loading of the samples into the 32-well MagNA Pure plate, the samples were syringed 5-6 times using a 20-gauge 3-ml syringe to ensure a smooth solution for robotic processing. Tissue sample processing was performed in duplicate wells (loading 150 μl of homogenized sample and 150 μl of additional lysis buffere to each well) of the MagNA Pure LC, which is programmed to extract mRNA using oligo-dT selection technology into a final elution volume of 100 μl. Poly A(+) RNA sample concentration was performed using a standard ethanol precipitation protocol in the presence of glycogen (50 μg/ml).” for “Corp).”

In the case of `CC[C@H](C)C(=O)O[C@H]1C[C@@H](C)C=C2C=C[C@H](C)[C@H](CC[C@@H]3C[C@@H](O)CC(=O)O3)[C@H]21` (relative stereo) [LOVASTATIN, (1S-(1α(R*),3α,7β,8β(2S*,4S*)-8αβ)-2-methylbutanoic acid 1,2,3,7,8,8a-hexahydro-3,7-dimethyl-8-(2-(tetrahydro-4-hydroxy-6-oxo-2H-pyran-2-yl)ethyl)-1-naphthalenyl ester], the “Chol index (fold reduction)” value with male Sprague-Dawley rats (dose 450, time 5 days) turned out to be 2.39 fold reduction. Also, the reduction in cholesterol in the assay on male Sprague-Dawley rats was 2 fold.

For `C[C@]12CC[C@@H]3c4ccc(OC(=O)c5ccccc5)cc4CC[C@H]3[C@@H]1CC[C@@H]2O` [BETA-ESTRADIOL 3-BENZOATE], the SPS in the assay with livers of rats (dose 2 (mg/ml), time point 3 days) was determined as 46.4. The “Cholesterol Index (fold reduction)” value in the assay with male Sprague-Dawley rats (dose 2, time point 3 days) came out at 2.0 fold reduction.

`C[C@]12CC[C@@H]3c4ccc(O)cc4CC[C@H]3[C@@H]1CC[C@@H]2O` [BETA-ESTRADIOL, (17β)-estra-1,3,5(10)-triene-3,17-diol]: the SPS was determined as 53 in the assay with livers of rats (dose 150 (mg/ml), time point 1 day); 63.4 with livers of rats (dose 150 (mg/ml), time point 3 days); 63.7 in the assay with livers of rats (dose 150 (mg/ml), time point 5 days). The “Cholesterol Index (fold reduction)” value is 3.1 fold reduction with male Sprague-Dawley rats (dose 150, time point 3 days) and 4.7 fold reduction in the assay on male Sprague-Dawley rats (dose 150, time point 5 days). Moreover, the “Chol index (fold reduction)” value is on record as 3.21 fold reduction with male Sprague-Dawley rats (dose 150, time 3 days) and 4.94 fold reduction with male Sprague-Dawley rats (dose 150, time 5 days).

As to `CCOC(=O)C(C)(C)Oc1ccc(Cl)cc1` [CLOFIBRATE, 2-(4-chlorophenoxy)-2-methylpropanoic acid ethyl ester], the “Chol index (fold reduction)” value with male Sprague-Dawley rats (dose 500, time 3 days) is reported as 2.43 fold reduction.

As for `C[C@@H]1C[C@H]2[C@@H]3CCC4=CC(=O)C=C[C@]4(C)[C@@]3(F)[C@@H](O)C[C@]2(C)[C@@]1(O)C(=O)CO` [DEXAMETHASONE], the SPS in the assay on livers of rats (dose 1 (mg/ml), time point 3 days) was determined as 49.5. Moreover, the “Cholesterol Index (fold reduction)” value in the assay with male Sprague-Dawley rats (dose 1, time point 3 days) came to 0.9 fold reduction.

With `CC/C(=C(/CC)c1ccc(O)cc1)c1ccc(O)cc1` [DIETHYLSTILBESTROL, 3,4-bis-(4-hydroxyphenyl)-3-hexene], the SPS in the assay on livers of rats (dose 2.8 (mg/ml), time point 1 day) came to 57.3; in the assay with livers of rats (dose 2.8 (mg/ml), time point 3 days), 71.2; in the assay on livers of rats (dose 2.8 (mg/ml), time point 5 days), 80.9; in the assay on livers of rats (dose 300 (mg/ml), time point 1 day) it was 59; in the assay with livers of rats (dose 300 (mg/ml), time point 3 days), 83.3; in the assay with livers of rats (dose 300 (mg/ml), time point 5 days), 91.1. The “Cholesterol Index (fold reduction)” value turned out to be 3.0 fold reduction in the assay on male Sprague-Dawley rats (dose 2.8, time point 3 days) and 3.4 fold reduction in the assay on male Sprague-Dawley rats (dose 2.8, time point 5 days). Also, the “Chol index (fold reduction)” value in the assay with male Sprague-Dawley rats (dose 2.8, time 3 days) was 3.10 fold reduction; in the assay with male Sprague-Dawley rats (dose 2.8, time 5 days), 3.56 fold reduction.

`C[C@]12CC[C@@H]3c4ccc(O)cc4CC[C@H]3[C@@H]1C[C@@H](O)[C@@H]2O` [ESTRIOL, (16α, 17β)-estra-1,3,5(10)-triene-3,16,17-triol]: the SPS in the assay on livers of rats (dose 313 (mg/ml), time point 1 day) stood at 51.5; in the assay with livers of rats (dose 313 (mg/ml), time point 3 days), 65.1; with livers of rats (dose 313 (mg/ml), time point 5 days) it was 83.4. Also, the “Cholesterol Index (fold reduction)” value worked out at 3.2 fold reduction in the assay with male Sprague-Dawley rats (dose 313, time point 3 days) and 20.9 fold reduction in the assay on male Sprague-Dawley rats (dose 313, time point 5 days). In addition, the “Chol index (fold reduction)” value in the assay with male Sprague-Dawley rats (dose 313, time 3 days) came out at 3.30 fold reduction; in the assay on male Sprague-Dawley rats (dose 313, time 5 days) it was 20.28 fold reduction. Moreover, the reduction in cholesterol in the assay on male Sprague-Dawley rats came out at 20 fold.

Regarding `OC(Cn1cncn1)(Cn1cncn1)c1ccc(F)cc1F` [FLUCONAZOLE, α-(2,4-difluorophenyl)-α-(1H-1,2,4-triazol-1-ylmethyl)-1H-1,2,4-triazole-1-ethanol], the SPS in the assay on livers of rats (dose 394 (mg/ml), time point 5 days) turned out to be 59.7. The “Cholesterol Index (fold reduction)” value in the assay with male Sprague-Dawley rats (dose 394, time point 5 days) was 3.7 fold reduction. For the same molecule, in the assay with male Sprague-Dawley rats (dose 394, time 5 days), the “Chol index (fold reduction)” value stood at 3.94 fold reduction.

Turning to `C#C[C@]1(OC(C)=O)CC[C@H]2[C@@H]3CCC4=CC(=O)CC[C@@H]4[C@H]3CC[C@@]21C` [NORETHINDRONE ACETATE], the SPS was 58.8 with livers of rats (dose 125 (mg/ml), time point 1 day); 81.6 in the assay with livers of rats (dose 125 (mg/ml), time point 3 days); 80.7 in the assay on livers of rats (dose 125 (mg/ml), time point 5 days). Besides, the “Cholesterol Index (fold reduction)” value in the assay with male Sprague-Dawley rats (dose 125, time point 3 days) worked out at 2.0 fold reduction; in the assay with male Sprague-Dawley rats (dose 125, time point 5 days), 4.0 fold reduction. Also, the “Chol index (fold reduction)” value with male Sprague-Dawley rats (dose 125, time 5 days) came to 4.07 fold reduction.

`C#C[C@]1(O)CC[C@H]2[C@@H]3CCC4=CC(=O)CC[C@@H]4[C@H]3CC[C@@]21C` [NORETHINDRONE, (17α)-17-hydroxy-19-norpregn-4-en-20-yn-3-one]: the “Cholesterol Index (fold reduction)” value with male Sprague-Dawley rats (dose 375, time point 3 days) is 3.5 fold reduction. Moreover, the “Chol index (fold reduction)” value is on record as 3.56 fold reduction in the assay on male Sprague-Dawley rats (dose 375, time 3 days) and 3.06 fold reduction in the assay on male Sprague-Dawley rats (dose 375, time 5 days).
